The text below walks through data of patent US4078079A, “Thiocyano-xanthate miticides” (Stauffer Chemical Company, priority 1976, dated 1978).

Values after ≈ are worked out from the molar mass of the structure shown. Like-named read-outs stand apart in the source and are kept apart here. Some results are limits rather than exact numbers.

For one test, the system named is Pencillium italicum. Briefly: In Vitro Agar Screening Tests (Example 5). The format is cell-based. The settings on record: Penicillium italicum, P. italicum, potato dextrose, 30° C, read-out: Minimum Inhibitory Concentration. The protocol:
(§1) This test measures the bactericidal and fungicidal properties of a compound when in contact with growing bacteria or fungi in an artificial medium. The test is conducted by adding 20 ml. portions of a suitable warm sterile agar solution into 20 × 100 Petri dishes. Then, the test compound, in 0.5% acetone solution, is added to the Petri dishes at levels of 1, 5, 10 and 50 ug/ml. and mixed with the warm mobile agar solution. The treated agar mixture is then allowed to come to room temperature and solidify. Cells of the chosen organism are streaked on the surface of the solidified agar and are then incubated for such lengths of time that untreated samples containing no toxicant show luxurious growth typical of the particular organism. This time varies from 24 hours to one week depending on the particular organism. The fungi are incubated at 30° C and the bacteria are incubated at 37° C. Nutrient agar is used as the medium in this test for the bacteria. Potato dextrose is used as the medium for the fungi. The extent of growth is noted at the end of the incubation period.

The test system of the next test is Aspergillus niger. Nature of the test: In Vitro Agar Screening Tests (Example 5). The test is classed as cell-based. The settings on record: A. niger, potato dextrose, 30° C, read-out: Minimum Inhibitory Concentration. The protocol:
as §1

The test system of another test is Staphylococcus aureus. Briefly: In Vitro Agar Screening Tests (Example 5). The settings on record: S. aureus, nutrient agar, 37° C, read-out: Minimum Inhibitory Concentration. The format is cell-based. On the procedure: as §1
The subject of test [1] is Two-spotted Mite (2-SM) Tetranychus urticae (Koch). Nature of the test: Plant Dip Assay on Two-Spotted Mite, 2-SM PE. The settings on record: infested Pinto Bean plants dipped 2-3 seconds, mortality after seven days, adult mites. The format is in vivo. The source says:
(§2) The Two-spotted Mite (2-SM) Tetranychus urticae (Koch) is subjected to evaluation tests for miticidal activity. Plant Dip Assay on Two-Spotted Mite [Tetranychus urticae (Koch)] Pinto Bean plants (Phaseolus sp.) approximately 10 cm tall, are transplanted into sandy loam soil in 3 inch clay pots and thoroughly infested with two-spotted mites of mixed ages and sexes. Twenty-four hours later the infested plants are inverted and dipped for 2-3 seconds in 50-50 acetone-water solutions of the test chemicals. Treated plants are held in the greenhouse, and seven days later mortality is determined for both the adult mites and the nymphs hatching from eggs which were on the plants at the time of treatment. Test concentrations range from 0.05% down to that at which 50% mortality occurs. The values obtained in this test are found in Table VII under the Columns 2SM-PE and 2SM-Eggs.

For test [2], the system named is Two-spotted Mite (2-SM) Tetranychus urticae (Koch) eggs. Nature of the test: Plant Dip Assay on Two-Spotted Mite, 2-SM Eggs. The test is classed as in vivo. To be noted: infested Pinto Bean plants dipped 2-3 seconds, mortality after seven days, nymphs hatching from eggs.
Excerpt: as §2

In a further test the test system is Escherichia coli. Briefly: In Vitro Agar Screening Tests (Example 5). The settings on record: E. coli, nutrient agar, 37° C, read-out: Minimum Inhibitory Concentration. The test is classed as cell-based. On the procedure: as §1
Where [3] appears, read: partial control at this concentration.

`N#CSCSC(=S)OCCOc1ccccc1` [Compound 2]: the MIC is 0.25 mg/L (≈ 0.876 µM) with Pencillium italicum, 1 mg/L (≈ 3.5 µM) with Aspergillus niger and 10 mg/L (≈ 35 µM) in the test with Staphylococcus aureus.
For `COCCOC(=S)SCSC#N` [Compound 3], the “2-SM PE: concentration at which 50% mortality occurs” value in test [1] is listed as “.01%”. Also, the “2-SM Eggs: concentration at which 50% mortality occurs” value in test [2] is “.01%”. Besides, the MIC with Pencillium italicum stood at 0.5 mg/L (≈ 2.24 µM); in the test on Aspergillus niger it was 5 mg/L (≈ 22.4 µM); in the test on Escherichia coli it was 50 mg/L (≈ 224 µM); with Staphylococcus aureus, 50 mg/L (≈ 224 µM).
For the molecule `CCSCCOC(=S)SCSC#N` [Compound 4], the MIC was found to be 0.5 mg/L (≈ 1.97 µM) with Pencillium italicum, 5 mg/L (≈ 19.7 µM) in the test on Aspergillus niger, 50 mg/L (≈ 197 µM) in the test on Escherichia coli and 5 mg/L (≈ 19.7 µM) in the test on Staphylococcus aureus.
In the case of `CCCCOCCOC(=S)SCSC#N` [Compound 6], the “2-SM PE: concentration at which 50% mortality occurs” value in test [1] is “.03%”. Further, the MIC is 0.5 mg/L (≈ 1.88 µM) in the test with Pencillium italicum, 0.5 mg/L (≈ 1.88 µM) with Aspergillus niger, 50 mg/L (≈ 188 µM) with Escherichia coli and 5 mg/L (≈ 18.8 µM) with Staphylococcus aureus.
Turning to `CCCCOCCOCCOC(=S)SCSC#N` [Compound 7], the “2-SM PE: concentration at which 50% mortality occurs” value in test [1] is “.03%”. Besides, the MIC in the test with Pencillium italicum, in the test with Aspergillus niger and with Staphylococcus aureus was 5 mg/L (≈ 16.2 µM) in each case.
`N#CSCSC(=S)OCCOc1ccccc1Cl` [Compound 8]: the “2-SM PE: concentration at which 50% mortality occurs” value in test [1] is “.05%”. Besides, the values for the MIC with Pencillium italicum, in the test with Aspergillus niger and with Staphylococcus aureus were 0.5 mg/L (≈ 1.56 µM), 5 mg/L (≈ 15.6 µM) and 10 mg/L (≈ 31.3 µM), respectively.
Consider `N#CSCSC(=S)OCCSc1ccccc1` [Compound 9], for which the “2-SM PE: concentration at which 50% mortality occurs” value in test [1] is “> .05%”. Besides, the “2-SM Eggs: concentration at which 50% mortality occurs” value in test [2] is “> .05%”. In addition, the MIC with Pencillium italicum stood at 1 mg/L (≈ 3.32 µM); with Aspergillus niger, 1 mg/L (≈ 3.32 µM); in the test on Staphylococcus aureus it was 5 mg/L (≈ 16.6 µM).
As to `Cc1ccc(OCCOC(=S)SCSC#N)cc1` [Compound 10], in test [1], the “2-SM PE: concentration at which 50% mortality occurs” value is recorded as “> .05%”. Moreover, in test [2], the “2-SM Eggs: concentration at which 50% mortality occurs” value is on record as “> .05%”. The figures for the MIC with Pencillium italicum, with Aspergillus niger and in the test with Staphylococcus aureus were 0.25 mg/L (≈ 0.835 µM), 1 mg/L (≈ 3.34 µM) and 10 mg/L (≈ 33.4 µM), respectively.
Take `COc1ccc(OCCOC(=S)SCSC#N)cc1` [Compound 11]: the “2-SM PE: concentration at which 50% mortality occurs” value in test [1] is “.05%”. Besides, the “2-SM Eggs: concentration at which 50% mortality occurs” value in test [2] was “.05%”. Further, the MIC worked out at 0.25 mg/L (≈ 0.793 µM) with Pencillium italicum (setting [3]), 1 mg/L (≈ 3.17 µM) with Aspergillus niger, 25 mg/L (≈ 79.3 µM) with Escherichia coli and 5 mg/L (≈ 15.9 µM) in the test with Staphylococcus aureus.
Turning to `Cc1ccccc1OCCOC(=S)SCSC#N` [Compound 12], the “2-SM PE: concentration at which 50% mortality occurs” value in test [1] was “.01%”. In addition, the “2-SM Eggs: concentration at which 50% mortality occurs” value in test [2] is given as “.03%”. Further, the MIC in the test on Pencillium italicum (setting [3]) was 0.125 mg/L (≈ 0.417 µM); with Aspergillus niger it was 1 mg/L (≈ 3.34 µM); with Escherichia coli, more than 50 mg/L; in the test on Staphylococcus aureus, 5 mg/L (≈ 16.7 µM).
On to `N#CSCSC(=S)OCCOc1ccc(Cl)cc1` [Compound 13], for which, in test [1], the “2-SM PE: concentration at which 50% mortality occurs” value is “> .05%”. Also, in test [2], the “2-SM Eggs: concentration at which 50% mortality occurs” value was “> .05%”. Moreover, the MIC is 0.5 mg/L (≈ 1.56 µM) in the test with Pencillium italicum (setting [3]), 1 mg/L (≈ 3.13 µM) in the test with Aspergillus niger, more than 50 mg/L in the test on Escherichia coli and 5 mg/L (≈ 15.6 µM) with Staphylococcus aureus.
In the case of `N#CSCSC(=S)OCCSc1ccc(Cl)cc1` [Compound 14], the “2-SM PE: concentration at which 50% mortality occurs” value in test [1] is reported as “.008%”. Moreover, in test [2], the “2-SM Eggs: concentration at which 50% mortality occurs” value is “.003%”. The MIC in the test on Pencillium italicum (setting [3]) was 1 mg/L (≈ 2.98 µM); in the test with Aspergillus niger (setting [3]), 1 mg/L (≈ 2.98 µM); in the test on Escherichia coli, more than 50 mg/L; with Staphylococcus aureus it was less than 5 mg/L.
`N#CSCSC(=S)OCCSc1ccc2ccccc2c1` [Compound 15]: the “2-SM PE: concentration at which 50% mortality occurs” value in test [1] is given as “> .05%”. Besides, the “2-SM Eggs: concentration at which 50% mortality occurs” value in test [2] is given as “> .05%”. Also, the MIC with Pencillium italicum is 5 mg/L (≈ 14.2 µM); with Aspergillus niger (setting [3]) it was 5 mg/L (≈ 14.2 µM); in the test on Escherichia coli, more than 50 mg/L; with Staphylococcus aureus (setting [3]), 0.25 mg/L (≈ 0.711 µM).
Take `Cc1ccc(SCCOC(=S)SCSC#N)cc1` [Compound 17]: in test [1], the “2-SM PE: concentration at which 50% mortality occurs” value is “> .05%”. For the same molecule, in test [2], the “2-SM Eggs: concentration at which 50% mortality occurs” value is given as “> .05%”. Besides, the MIC in the test on Pencillium italicum (setting [3]) was determined as 0.5 mg/L (≈ 1.58 µM); with Aspergillus niger (setting [3]), 1 mg/L (≈ 3.17 µM); with Escherichia coli (setting [3]), 50 mg/L (≈ 158 µM); in the test on Staphylococcus aureus, 5 mg/L (≈ 15.8 µM).
For `N#CSCSC(=S)OCCOc1ccc(Cl)cc1Cl` [Compound 18], the MIC with Pencillium italicum, in the test on Aspergillus niger and in the test on Staphylococcus aureus was 5 mg/L (≈ 14.1 µM) throughout.
